This is an account of results in US20110165085A1, “TUMOR SELECTIVE FLUORESCENT STAINING AGENT” (THE UNIVERSITY OF TOKYO, priority 2006, published 2011).

Test [1] relates to RGK1 (transformed, cancer model) and RGM1 (normal gastric mucosal epithelium) cells. Briefly: Flow cytometry screening: average fluorescence intensity ratio of RGK1 relative to RGM1. The format is cell-based, rat. The procedure:
Screening for candidate compounds was performed in a cultured cell system. As cultured cells, rat normal gastric mucosal epithelium derived cells, RGM1, and transformed cells thereof, RGK1, were used as model cells of normal cell and cancer cell, respectively. For the culture of RGM1 and RGK1, a DMEM/HAM F12 (1:1) medium (10% FBS, 0.1% penicillin streptomycin) was used. Each of the compounds shown below (concentration: 0-1 μM) was loaded on these cells for 10 minutes, then the medium was replaced with the medium not containing the compounds, and after a given time, average fluorescence intensity was determined by flow cytometry. Effectiveness of each compound was evaluated on the basis of average of fluorescence intensity ratio of RGK1 relative to RGM1.
Various ester derivatives converted from acetyl ester of FDA shown in Table I were compared by flow cytometry in the same manner as that used in Example 1.

For test [2], the system named is intracellular esterase (RGK1 and RGM1 cell lysates). Briefly: Hydrolytic enzyme activity for FDA in the two types of cell lysates. The format is biochemical, rat. An excerpt:
FDA is an esterase-sensitive fluorescent probe, and it enters into a cell by diffusion, then is hydrolyzed by an intracellular esterase to produce a fluorescent fluorescein, and gradually leaks out of the cell. Since the fluorescein is more hydrophilic compared with FDA, the leakage of the fluorescein out of the cell occurs much more slowly than the uptake of FDA into the cell. This process was compared for the normal cells and the cancer cells.

Test [3] has as its system cancer cells and normal cells. Put plainly: Imaging of cancer and normal cells under a fluorescence microscope. Format: cell-based, rat. To be noted: fluorescence microscope IX71, excitation 470-490 nm, filter 500 nm. The method, then:
Imaging was performed by using FDAcr under a fluorescence microscope.

A further test has as its system esophagus cancer lesion. Put plainly: Fluorescence endoscopic imaging of NMBA rat esophagus cancer model. Format: in vivo. The following applies: endoscope (FIG. 4). The procedure:
By using FDAcr, imaging of an NMBA rat, an esophagus cancer model, was performed. A rat (10-week old, male) was subcutaneously injected with 1 mg of NMBA 5 times per week for the first to 5th weeks, and once per week for 6th to 15th weeks, and used for the experiment after 16th week. The rat was anesthetized by intraperitoneal administration of Nembutal (1 mL/kg body weight) and fixed on a rest in the dorsal position to maintain the airway. An endoscope was inserted into the esophagus for observation. […] In the same manner as Example 5, a fluorescent endoscopic image was obtained by using Cy-7, a cyanine near-infrared fluorescent dye.

A further test deals with colon cancer lesion. Put plainly: Fluorescence endoscopic imaging of colon cancer model rat. The format is in vivo. To be noted: enema 15 ml of 100 μM in PBS, 3 minutes, fiberscope (FIG. 5). The method, then:
By using FEAcr, imaging of a colon cancer model rat was performed. A colon cancer model rat was anesthetized with ether, and inside the colon was washed with 0.6% aqueous acetic acid. The inside of the colon was washed two to three times with PBS maintained at 37° C., and then an enema with 15 ml of 100 μM FDAcr (PBS solution) was performed from the anus and the anus was clogged to stand for 3 minutes. After 3 minutes, the inside of the colon was washed two to three times with PBS maintained at 37° C. A fiberscope (BF-3C40) was inserted in the colon to observe pathological legions.

As for `CC(=O)Oc1ccc2c(c1)Oc1cc(OC(C)=O)ccc1C21OC(=O)c2ccccc21` [FDA, fluorescein diacetate], the “average of fluorescence intensity ratio of RGK1 relative to RGM1” value in test [1] (compound 0-1 μM loaded 10 minutes, medium replaced, flow cytometry after a given time, among candidate compounds (FIG. 1)) is on record as “highest fluorescence intensity ratio”. Besides, in test [2], the “hydrolytic activity for FDA, RGK1 versus RGM1” value is reported as “about twice higher hydrolytic activity”.
On to `C=CC(=O)Oc1ccc2c(c1)Oc1cc(OC(=O)C=C)ccc1C21OC(=O)c2ccccc21` [FDAcr, fluorescein diacrylate], for which the “performance for distinguishing cancer cells from normal cells (fluorescence intensity ratio)” value in test [1] (flow cytometry as in Example 1, compared among ester derivatives of Table 1 (FIG. 2)) is “superior performance for distinguishing cancer cells from normal cells”. In addition, the “fluorescence in cancer cells versus normal cells” value in test [3] is recorded as “Strong fluorescence was observed in the cancer cells”. Moreover, in the test with esophagus cancer lesion, the “fluorescence intensity around esophagus cancer lesion versus normal tissues” value was “higher than that of normal tissues”. Further, the “fluorescence at colon cancer lesion” value in the test on colon cancer lesion is on record as “Strong fluorescence was observed at each colon cancer lesion”.
